Key:
[1] = test system: isolated rat hearts with global ischemia and reperfusion; test: Isolated working rat heart with global ischemia and reperfusion: coronary flow and contractility
Source text: Effects on Coronary Flow and Contractility of the Heart with Global Ischemia and Reperfusion: […]

[2] = test system: isolated rat hearts; test: Isolated working rat heart: coronary flow and contractility
Source text: As biological materials the isolated hearts of male Wistar rats were used which were purchased from our Laboratory Animal Science and Welfare (LASW). The heart function (coronary flow and contractility) was investigated on the “Isolated Working Heart” model as previously described (Itter G et al., Laboratory Animals (2005) 39; 178-193). The hearts were first perfused according to Langendorff's method with an oxygenated (95% O2, 5% CO2) noncirculating Krebs-Henseleit solution of the following compositions (mmol/L): NaCl, 118; KCl, 4.7; CaCl2, 2.5; MgSO4, 1.6; NaHCO3, 24.9; KH2PO4, 1.2; glucose, 5.5; Na-pyruvate, 2.0. A catheter placed into the pulmonary artery drained the coronary effluent perfusate that was collected for determination of coronary flow and venous PO2 measurements. The left atrium was cannulated by an incision of the left auricle. After a 15-minute equilibration period at a fixed perfusion pressure of 60 mmHg, the heart was switched into the working mode at a fixed filling pressure of 11 mmHg. Coronary flow (CF) and pressure signals (dP/dtmax) were sampled at 500 Hz, averaged every 2 seconds.
High rasburicase concentrations were tested in combination with different uric acid concentrations on isolated working rat hearts for their possible adverse cardiac effects caused by the generated hydrogenperoxide (H2O2).

[3] = addition of ascorbic acid 1 mM to Rasb 50 μg/mL + UA 30 mg/L
[4] = UA 15 mg/L (Rasb 50 μg/mL where present), 1 min before ischemia
[5] = UA 15 mg/L (Rasb 50 μg/mL where present), 5 min before ischemia
[6] = UA 15 mg/L (Rasb 50 μg/mL where present), Global Ischemia
[7] = UA 15 mg/L (Rasb 50 μg/mL where present), Reperf. 5 min after Ischemia
[8] = UA 15 mg/L (Rasb 50 μg/mL where present), Reperf. 10 min after Ischemia
[9] = UA 15 mg/L (Rasb 50 μg/mL where present), Reperf. 15 min after Ischemia
[10] = UA 30 mg/L (Rasb 50 μg/mL where present), 1 min before ischemia, Table 5
[11] = UA 30 mg/L (Rasb 50 μg/mL where present), 5 min before ischemia, Table 5
[12] = UA 30 mg/L (Rasb 50 μg/mL where present), Global Ischemia, Table 5
[13] = UA 30 mg/L (Rasb 50 μg/mL where present), Reperf. 5 min after Ischemia, Table 5
[14] = UA 30 mg/L (Rasb 50 μg/mL where present), Reperf. 10 min after Ischemia, Table 5
[15] = UA 30 mg/L (Rasb 50 μg/mL where present), Reperf. 15 min after Ischemia, Table 5

Molecule: O=C1O[C@H]([C@@H](O)CO)C(O)=C1O [ascorbic acid, Ascorbic acid]
- contractility after ischemia/reperfusion (in words) [1, 3]: further improvement
- coronary flow after ischemia/reperfusion (in words) [1, 3]: normalization

Molecule: OO [H2O2, hydrogenperoxide]
- contractility (dP/dtmax) ([2]; H2O2 10 μM, n = 4): 4774 ± 185 mmHg/s
- coronary flow (CF) ([2]; H2O2 10 μM, n = 4): 13.89 ± 0.55 mL/min
- contractility (dP/dtmax) ([2]; H2O2 30 μM, n = 4): 4469 ± 167 mmHg/s
- coronary flow (CF) ([2]; H2O2 30 μM, n = 4): 15.21 ± 1 mL/min
- contractility (dP/dtmax) ([2]; H2O2 100 μM, n = 4): 4573 ± 268 mmHg/s
- coronary flow (CF) ([2]; H2O2 100 μM, n = 4): 15.7 ± 1.3 mL/min
- contractility (dP/dtmax) ([2]; H2O2 200 μM, n = 4): 1698 ± 69 mmHg/s
- coronary flow (CF) ([2]; H2O2 200 μM, n = 4): 10.42 ± 0.3 mL/min
- effect on coronary flow and contractility (in words) ([2]; concentrations higher than 100 μM H2O2): strongly reduced

Molecule: O=c1[nH]c(=O)c2[nH]c(=O)[nH]c2[nH]1 [Uric Acid, Uric acid]
- contractility (dP/dtmax) ([2]; male, Wistar, rat, 6 mg/L): 3867 ± 327 mmHg/s
- coronary flow (CF) ([2]; male, Wistar, rat, 6 mg/L): 13.51 ± 1.02 mL/min
- contractility (dP/dtmax) [1, 4]: 3608 ± 318 mmHg/s
- coronary flow (CF) [1, 4]: 12.82 ± 0.75 mL/min
- contractility (dP/dtmax) [1, 5]: 3600 ± 250 mmHg/s
- coronary flow (CF) [1, 5]: 13.28 ± 0.7 mL/min
- contractility (dP/dtmax) [1, 6]: 61 ± 1 mmHg/s
- coronary flow (CF) [1, 6]: 0.38 ± 0.06 mL/min
- contractility (dP/dtmax) [1, 7]: 1057 ± 496 mmHg/s
- coronary flow (CF) [1, 7]: 4.47 ± 1.69 mL/min
- contractility (dP/dtmax) [1, 8]: 1284 ± 667 mmHg/s
- coronary flow (CF) [1, 8]: 4.71 ± 1.86 mL/min
- contractility (dP/dtmax) [1, 9]: 1403 ± 736 mmHg/s
- coronary flow (CF) [1, 9]: 4.73 ± 1.85 mL/min
- contractility (dP/dtmax) [1, 10]: 4017 ± 437 mmHg/s
- coronary flow (CF) [1, 10]: 13.11 ± 0.88 mL/min
- contractility (dP/dtmax) [1, 11]: 4020 ± 350 mmHg/s
- coronary flow (CF) [1, 11]: 13.33 ± 0.7 mL/min
- contractility (dP/dtmax) [1, 12]: 59 ± 2 mmHg/s
- coronary flow (CF) [1, 12]: 0.31 ± 0.02 mL/min
- contractility (dP/dtmax) [1, 13]: 2224 ± 418 mmHg/s
- coronary flow (CF) [1, 13]: 8.34 ± 1.88 mL/min
- contractility (dP/dtmax) [1, 14]: 2898 ± 314 mmHg/s
- coronary flow (CF) [1, 14]: 9.16 ± 1.29 mL/min
- contractility (dP/dtmax) [1, 15]: 3192 ± 273 mmHg/s
- coronary flow (CF) [1, 15]: 9.25 ± 0.63 mL/min

B1: rasburicase (protein, listed as Aspergillus flavus)
chain: SAVKAARYGKDNVRVYKVHKDEKTGVQTVYEMTVCVLLEGEIETSYTKADNSVIVATDSIKNTIYITAKQNPVTPPELFGSILGTHFIEKYNHIHAAHVNIVCHRWTRMDIDGKPHPHSFIRDSEEKRNVQVDVVEGKGIDIKSSLSGLTVLKSTNSQFWGFLRDEYTTLKETWDRILSTDVDATWQWKNFSGLQEVRSHVPKFDATWATAREVTLKTFAEDNSASVQATMYKMAEQILARQQLIETVEYSLPNKHYFEIDLSWHKGLQNTGKNAEVFAPQSDPNGLIKCTVGRSSLKSKL
modifications: homotetramer
notes: recombinant urate oxidase enzyme from genetically modified Saccharomyces cerevisiae with Aspergillus flavus cDNA
- heart function (in words) ([1]; in the presence of uric acid, present prior and during ischemia/reperfusion): even improved
- cardiodynamics after ischemia (in words) ([1]; ischemia/reperfusion experiments): even improved
- recovery after ischemia/reperfusion (in words) ([1]; rasburicase 50 μg/mL in combination with uric acid 15 or 30 mg/L): concentration-dependently improved
